Reference: PMC9221442, “Design, Synthesis and Characterization of [G10a]-Temporin SHa Dendrimers as Dual Inhibitors of Cancer and Pathogenic Microbes” (Biomolecules, 2022)
Read-outs that look alike come from different tables or passages of the source. Where a SMILES comes first, the peptide text is derived from it. Bridges are numbered along the chain shown (N, C = ends). Roman numbers before positions name the chains, in order. Where no end group is shown, it is not given here. [ ]: non-standard residue; d: D form.

Experiments:
[1] = Stability study at different pH; conditions: pH 2 to pH 14
Experimental: The stability of dendrimers at different pH values and temperatures was also determined. For this, a 510 model digital pH meter (Oakton Eutech) with working electrode of glass material and a Ag/AgCl as reference electrode was used for the pH record. […] Similarly, stability of monomer [G10a]-SHa and its three dendrimers was checked by heating the peptide dendrimers on different temperature ranges, i.e., room temperature, 35 °C, 40 °C, 50 °C and 60 °C.

[2] = Stability study at different temperatures (absorbance spectrum); conditions: room temperature, 35 °C, 40 °C, 50 °C and 60 °C
Experimental: The stability of dendrimers at different pH values and temperatures was also determined. For this, a 510 model digital pH meter (Oakton Eutech) with working electrode of glass material and a Ag/AgCl as reference electrode was used for the pH record. Dilute solutions of HCl and NaOH were added to adjust the pH of the solution from 2 to 12. Similarly, stability of monomer [G10a]-SHa and its three dendrimers was checked by heating the peptide dendrimers on different temperature ranges, i.e., room temperature, 35 °C, 40 °C, 50 °C and 60 °C.

human red blood cells = assay: Hemolysis assay; assay type: cell-based; conditions: for hemolysis: 100 µM; for estimated HC50 (concentration causing 50% of hemolysis): 1 h
Experimental: (§1) The ability of dendrimers and peptides to cause hemolysis was evaluated using human whole red blood cells. Briefly, fresh human erythrocytes (obtained from Divbio Science Europe, NL) were washed 3 times by centrifugation at 800× g for 5 min with sterile phosphate buffer saline (PBS, pH 7.4). The washed erythrocytes were resuspended in complete culture media (DMEM supplemented with 10% FBS) to a final concentration of 8%. Human erythrocytes were then added into sterile 96-well microplates (150 µL per well) and were exposed to increasing concentrations of peptides or dendrimers. After 1 h incubation at 37 °C, plates were centrifuged at 800× g for 5 min. Then, 100 µL of supernatant were carefully transferred to a new 96-well microplate and absorbance was measured at 450 nm using microplate reader. Triton-X100 at 0.1% (v/v) was used as positive control giving 100% hemolysis. The HC50 values of peptides and dendrimers (i.e., the concentration of compound causing 50% of hemolysis) were calculated using GraphPad® Prism 7 software.

[3] = tested on: human lung fibroblasts IMR-90; assay type: cell-based; conditions: 48 h
Experimental: (§2) The antiproliferative effect of the peptides was determined by using human cells, as previously described. Human cancer cells used in this experiment were ovarian cancer cells A2780 (obtained from ECACC), breast cancer cells MCF-7 (obtained from ATCC), liver cancer cells HepG2 (obtained from ATCC), lung cancer cells A549 (obtained from ATCC), pancreatic cancer cells MiaPaCa (obtained from ATCC), prostate cancer cells PC-3 (obtained from ATCC), and skin cancer cells MNT-1 (generous gift from the National Institute of Health (NIH). Normal human cells used were human lung fibroblasts IMR-90 (obtained from ATCC). All cells were cultured in DMEM which was supplemented with 10% fetal bovine serum (FBS), 1% L-glutamine, and 1% antibiotics (all from Invitrogen) at 37 °C in 5% CO2 incubator. For cytotoxicity assay, cells were maintained in 25 cm^2 flasks. Cells were separated from flasks using trypsin-EDTA solution (from Thermofisher) and counted using Malassez chamber and diluted in culture medium before seeding into 96-well cell-culture plates (Greiner bio-one, Paris, France) at approximately 3000 cells/well. Cells were then treated with increasing concentration of peptides diluted in culture medium (1:2 serial dilution, from 100 µM to 0 µM). After 48 h, medium was aspirated and number of viable cells was colorimetrically determined using resazurin-based assay following manufacturer’s instructions. The fluorescence intensity was measured using microplate reader (Biotek, Santa Clara, CA, USA, Synergy Mx) with an excitation wavelength of 530 nm and an emission wavelength of 590 nm. The fluorescence values were normalized by the controls (untreated cells) and expressed as percent of proliferation. The IC50 values of peptides (i.e., the concentrations causing 50% inhibition of cell proliferation) were determined using GraphPad® Prism 7 software.

human cancer cells = assay type: cell-based
Experimental: as §2

skin cancer cells MNT-1 = assay type: cell-based, human; conditions: 48 h
Experimental: as §2

lung cancer cells A549 = assay type: cell-based, human; conditions: 48 h
Experimental: as §2

[4] = tested on: ovarian cancer cells A2780; assay type: cell-based, human; conditions: 48 h
Experimental: as §2

[5] = tested on: pancreatic cancer cells MiaPaCa; assay type: cell-based, human; conditions: 48 h
Experimental: as §2

[6] = tested on: prostate cancer cells PC-3; assay type: cell-based, human; conditions: 48 h
Experimental: as §2

liver cancer cells HepG2 = assay type: cell-based, human; conditions: 48 h
Experimental: as §2

[7] = tested on: breast cancer cells MCF-7; assay type: cell-based, human; conditions: 48 h
Experimental: as §2

Hemolysis assay = assay type: cell-based, human; conditions: human; at 100 µM, 1 h, 37 °C, relative to Triton X-100 0.1%
Experimental: as §1

[8] = tested on: Staphylococcus aureus (ATCC 6538); assay type: cell-based; conditions: S. aureus (ATCC 6538), 18–24 h, aerobic
Experimental: (§3) Experiments were performed in triplicate (n = 3).

[9] = tested on: Pseudomonas aeruginosa (ATCC 9027); assay type: cell-based; conditions: P. aeruginosa (ATCC 9027), 18–24 h, aerobic
Experimental: as §3

[10] = tested on: Klebsiella pneumoniae (DSM 26371); assay type: cell-based; conditions: K. pneumoniae (DSM 26371), 18–24 h
Experimental: as §3

[11] = tested on: Enterococcus faecium (DSM 20477); assay type: cell-based; conditions: E. faecium (DSM 20477), 18–24 h, micro-aerobic
Experimental: as §3

[12] = tested on: Enterococcus faecalis (DSM 2570); assay type: cell-based; conditions: E. faecalis (DSM 2570), 18–24 h, micro-aerobic
Experimental: as §3

[13] = tested on: Bacillus subtilis (ATCC 6633); assay type: cell-based; conditions: B. subtilis (ATCC 6633), 18–24 h, aerobic
Experimental: as §3

[14] = tested on: Helicobacter pylori (ATCC 43504); assay type: cell-based; conditions: H. pylori (ATCC 43504), 18–24 h, micro-aerobic
Experimental: as §3

[15] = tested on: Enterobacter cloacae (DSM 30054); assay type: cell-based; conditions: E. cloacae (DSM 30054), 18–24 h, aerobic
Experimental: as §3

[16] = tested on: Acinetobacter baumannii (DSM 30007); assay type: cell-based; conditions: A. baumannii (DSM 30007), 18–24 h, aerobic
Experimental: as §3

[17] = tested on: Escherichia coli (ATCC 8739); assay type: cell-based; conditions: E. coli (ATCC 8739), 18–24 h, aerobic
Experimental: as §3

[18] = Dynamic light scattering (zetasizer); assay type: physicochemical
Experimental: The dendrimeric solutions of peptides were transferred into transparent cuvette with care to remove bubble formation. The sample was then transferred to the cell holder and study was performed at 90° scattering angle at room temperature. The standard viscosity and refractive index were kept constant and kept at 1.0, 1.33 and 80.4 mPa, respectively.

Compound: CC[C@H](C)[C@H](NC(=O)CNC(=O)[C@H](CO)NC(=O)[C@H](CC(C)C)NC(=O)[C@@H](N)Cc1ccccc1)C(=O)N[C@H](C(=O)NCC(=O)N[C@@H](CCSC)C(=O)N[C@@H](CC(C)C)C(=O)N[C@H](C)C(=O)N[C@@H](CCCCN)C(=O)N[C@@H](CC(C)C)C(=O)N[C@@H](Cc1ccccc1)C(=O)NCCCC[C@H](NC(=O)[C@H](Cc1ccccc1)NC(=O)[C@H](CC(C)C)NC(=O)[C@H](CCCCN)NC(=O)[C@@H](C)NC(=O)[C@H](CC(C)C)NC(=O)[C@H](CCSC)NC(=O)CNC(=O)[C@@H](NC(=O)[C@@H](NC(=O)CNC(=O)[C@H](CO)NC(=O)[C@H](CC(C)C)NC(=O)[C@@H](N)Cc1ccccc1)[C@@H](C)CC)C(C)C)C(N)=O)C(C)C [[G10a]2-SHa] (HELM PEPTIDE1{F.L.S.G.I.V.G.M.L.[dA].K.L.F.K.[am]}|PEPTIDE2{F.L.S.G.I.V.G.M.L.[dA].K.L.F}$PEPTIDE1,PEPTIDE2,14:R3-13:R2$$$V2.0)
- stability at different pH [1]: significantly stable at pH values up to 10 and unstable at high pH values of 12 and 14
- stability at different temperatures [2]: considerable stability up to 60 °C
- hemolytic activity (in words) (human red blood cells): high hemolytic activity
- hemolysis (human red blood cells): complete hemolysis
- estimated HC50 (concentration causing 50% of hemolysis) (human red blood cells; red cells of human): 11.55 ± 0.38 µM
- IC50 [3]: 22.3 ± 0.4 µM
- IC50 (human cancer cells; 48 h): 6.85 ± 3.66 µM
- IC50 (skin cancer cells MNT-1): 4.72 ± 0.36 µM
- IC50 (lung cancer cells A549): 3.79 ± 1.61 µM
- IC50 [4]: 4.42 ± 0.06 µM
- IC50 [5]: 8.71 ± 0.35 µM
- IC50 [6]: 6.31 ± 0.66 µM
- IC50 (liver cancer cells HepG2): 14.3 ± 1.37 µM
- IC50 [7]: 5.69 ± 1.46 µM

Compound: FLSGIVGMLGKLF-NH2 [Temporin SHa, H-Phe^1-Leu^2-Ser^3-Gly^4-Ile^5-Val^6-Gly^7-Met^8-Leu^9-Gly^10-Lys^11-Leu^12-Phe^13-NH2]
- hemolysis at 1 h, 100 µM (Hemolysis assay): 24.5 ± 1.88%
- estimated HC50 (concentration causing 50% of hemolysis) (human red blood cells; human erythrocytes, 37 °C): 266.20 ± 41.27 µM
- IC50 ([3]; Human Normal Fibroblast (IMR-90), read-out: IC50 (cell proliferation)): > 100 µM
- IC50 (human cancer cells; all cells except breast cancer MCF-7, up to 100 µM, read-out: IC50 on the human cells tested other than MCF-7): > 100 µM
- minimal inhibitory concentration (MIC) [8]: 3.12 µM
- minimal inhibitory concentration (MIC) [9]: 50 µM
- minimal inhibitory concentration (MIC) [10]: 50 µM
- minimal inhibitory concentration (MIC) [11]: 6.25 µM
- minimal inhibitory concentration (MIC) [12]: 12.5 µM
- minimal inhibitory concentration (MIC) [13]: 1.56 µM
- minimal inhibitory concentration (MIC) [14]: 3.12 µM
- minimal inhibitory concentration (MIC) [15]: 50 µM
- minimal inhibitory concentration (MIC) [16]: 6.25 µM
- minimal inhibitory concentration (MIC) [17]: 50 µM
- IC50 (skin cancer cells MNT-1; Skin Cancer (MNT-1), read-out: IC50 (cell proliferation)): > 100 µM
- IC50 (lung cancer cells A549; Lung Cancer (A549), read-out: IC50 (cell proliferation)): > 100 µM
- IC50 ([4]; Ovarian Cancer (A2780), read-out: IC50 (cell proliferation)): > 100 µM
- IC50 ([5]; Pancreatic Cancer (MiaPaCa), read-out: IC50 (cell proliferation)): > 100 µM
- IC50 ([6]; Prostate Cancer (PC-3), read-out: IC50 (cell proliferation)): > 100 µM
- IC50 (liver cancer cells HepG2; Liver Cancer (HepG-2), read-out: IC50 (cell proliferation)): > 100 µM
- IC50 ([7]; Breast Cancer (MCF-7), read-out: IC50 (cell proliferation)): 20.4 ± 5.64 µM

Compound: I: H-FLSGIVGML[dA]KLFKK-NH2 / II: H-FLSGIVGML[dA]KLF / III: H-FLSGIVGML[dA]KLF (amide I:14-III:C, I:15-II:C) [[G10a]3-SHa]
- stability at different pH [1]: significantly stable at pH values up to 10 and unstable at high pH values of 12 and 14
- stability at different temperatures [2]: considerable stability up to 60 °C
- hemolytic activity (in words) (human red blood cells): high hemolytic activity
- hemolysis (human red blood cells): complete hemolysis
- estimated HC50 (concentration causing 50% of hemolysis) (human red blood cells; red cells of human): 10.46 ± 0.36 µM
- IC50 [3]: 13.9 ± 0.42 µM
- IC50 (human cancer cells; 48 h): 3.76 ± 1.87 µM
- times more active than [G10a]-SHa at inhibiting multiplying cancer cells (human cancer cells; from mean IC50 on human cancer cells): 4.8 times
- Pdi Values (polydispersity index) ([18]; DLS): 0.462
- average hydrodynamic diameter ([18]; DLS): about 46.13 nm
- Z-Average ([18]; DLS, room temperature): 46.13 nm·days
- Zeta Potential ([18]; zetasizer): −71.2 mV
- minimal inhibitory concentration (MIC) [8]: 6.25 µM
- minimal inhibitory concentration (MIC) [14]: 25 µM
- minimal inhibitory concentration (MIC) [16]: 3.12 µM
- minimal inhibitory concentration (MIC) [17]: 25 µM
- IC50 (skin cancer cells MNT-1): 2.24 ± 0.05 µM
- IC50 (lung cancer cells A549): 3.74 ± 3.46 µM
- IC50 [4]: 2.31 ± 0.08 µM
- IC50 [5]: 6.94 ± 0.27 µM
- IC50 [6]: 1.84 ± 0.17 µM
- IC50 (liver cancer cells HepG2): 5.49 ± 0.37 µM
- IC50 [7]: 3.77 ± 0.12 µM
